For this assay, the system named is enteritis induced by trinitrobenzene sulfonic acid (TNBS). The assay can be described thus: Improvement of bowel swelling and mushy or watery feces in TNBS-induced enteritis. In kind it is in vivo. To be noted: TNBS-induced enteritis mice, oral; extracts 100 mg/kg (B. krylovianum also 1000 mg/kg), 5-ASA 200 mg/kg; 6 cm bowel from the anus observed. The source says:
The animal model of enteritis for test is from an induction by trinitrobenzene sulfonic acid (TNBS) (Current Protocols in Immunology (2001) 15.19.1-15.19.14; Lahat G, Halperin D, Fabian I, et al. Immunomodulatory Effects of Ciprofloxacin in TNBS-Induced Colitis in Mice. Inflamm Bowel Dis 2007;13:557-565; ten Hove T, van den Blink B, Pronk I, et al. Dichotomal role of inhibition of p38 MAPK with SB 203580 in experimental colitis. Gut 2002; 50:507-512; and Bouma G, Strober W. The Immunological and Genetic Basis of Inflammatory Bowel Disease. Nature Review Immunology 2003; 3: 521-533). The bowel in the animal model of enteritis has swelled and the feces therein show a mushy or watery appearance instead of a normal semi-solid type appearance.
Specifically, BABL/cAnNCrlBltw mice, purchased from BioLASCO Taiwan (Bltw) were grouped into four groups having 6 mice to a group. In three of the groups, each mouse was injected with 1.75 mg of trinitrobenzene sulfonic acid (TNBS) (Sigma) at a 4 cm depth of the bowel from the anus. After 48 hours, the injected location was induced to form enteritis. Mice in another group were injected with a 50% ethanol aqueous solution without TNBS at a 4 cm depth of the bowel from the anus as a negative control (A). The location injected ethanol aqueous solution without TNBS was not induced to form enteritis. […]

Regarding `Nc1ccc(O)c(C(=O)O)c1` [5-ASA, 5-aminosalicylic acid], the bowel swelling result is reported as “not alleviated or eliminated”.

The record behind these values is patent US9060989B2, “Method for treating or relieving inflammatory bowel disease” (INDUSTRIAL TECHNOLOGY RESEARCH INSTITUTE, priority 2010, dated 2015).
